Experimental data: US12194044B2, “Organic compounds” (priority 2016, dated 2025)

How the values were obtained:
[1] = target: T1, Serotonin 5-HT2A (Homo sapiens, UniProt P28223); test: Receptor binding studies, inhibition of human serotonin 5-HT2A receptor; details: read-out: inhibition of the human serotonin 5-HT2A receptor
[2] = Measurement of parent and amide metabolite levels in mice after single oral dose; format: in vivo; details: for extent of amide formation compared to compound Q after normalizing for internal standard: normalized to internal standard
Procedure: The compound of Comparative Example 4 is used as an internal standard in each study in order to control for differences in the inherent rate of metabolism in each study's animal group. […] The maximum concentration, time to maximum concentration, and Area Under the Curve (AUC) for both the parent and the major amide metabolite is determined. […] Relative Amide Formation is thus calculated as follows for each Example X (i.e., Ex. 1, Ex. 2, Ex. 3 and Ex. Q): [formula]

[3] = Pharmacokinetics in dogs, SL and SC, plasma parent and metabolite AUC; format: in vivo, beagle dogs; details: dog
Procedure: The pharmacokinetics of each compound is determined after both sublingual (SL) and subcutaneous (SC) administration in non-cross over sequential studies in dogs.
SC Administration: Six male beagle dogs between 2 and 5 years of age are randomized in two groups of three dogs each. […] Dogs in group 2 are administered the compound of Example 2 at a dose of 1 mg/kg (free base equivalent) in a 0.5% methylcellulose/distilled water vehicle. Administration is subcutaneous in the intrascapular region via a 22 or 23 gauge needle. Whole blood samples are collected via the dog's cephalic vein pre-dose, and at post-dose time-points 5, 15 and 30 minutes, 1, 2, 4, 6, 8 and 24 hours. Following a minimum 7-day washout period, the dogs are transferred to the sublingual portion of the study.
Dogs in group 2 are administered the compound of Example 2 at a dose of 1 mg/kg (free base equivalent) in a 0.5% methylcellulose/distilled water vehicle. The animals are anesthetized prior to administration of the dose using propofol (6 mg/kg) and anesthesia is maintained for 30 minutes using 3-4.5% isoflurane. Administration is sublingual and the dosage is applied for 30 minutes, then wiped off using unwoven gauze. Whole blood samples are collected via the dog's cephalic vein pre-dose, and at post-dose time-points 5, 15 and 30 minutes, 1, 2, 4, 6, 8, 24, 36 and 48 hours.
All blood samples are processed to plasma and analyzed for parent and metabolite concentrations using liquid chromatography-tandem mass spectrometry (LC-MS/MS). […] Area under the curve (AUC) of parent and metabolites based on plasma versus time data are calculated using Prism 5.04 software (GraphPad Software, Inc.).

[4] = test system: serotonin receptor (e.g., 5-HT2A), dopamine receptor (e.g., D2) and serotonin transporter; test: Receptor binding studies, binding profile compared to Formula Q
[5] = Pharmacokinetics in rats, PO and IV cross-over, plasma parent and metabolite AUC; format: in vivo; details: male, Sprague-Dawley, rat
Procedure: The pharmacokinetics of each compound is determined after both oral (PO) and intravenous (IV) administration in cross-over studies in rats.
PO Administration: Six male Sprague-Dawley rats are divided into two 3-rat groups for PO administration of compound on day 1 of the study. […] Blood samples are collected at 0.25, 0.5, 1, 2, 4, 6, 8, 12 and 24-hours post dose and analyzed for plasma concentration of the administered compound and its metabolites.
IV Administration: Six male Sprague-Dawley rats are divided into two 3-rat groups for IV administration of compound on day 1 of the study. […] Blood samples are collected at 2 minutes, 5 minutes, 0.25, 0.5, 2, 4, 6, 8 and 12 hours post dose and analyzed for plasma concentration of the administered compound and its metabolites.
All blood samples are processed to plasma and analyzed for parent and metabolite concentrations using liquid chromatography-tandem mass spectrometry (LC-MS/MS). The metabolites analyzed include the N-demethylated amide compound Q-1 (discussed supra). Area under the curve (AUC) of parent and metabolites based on plasma versus time data are calculated using Prism 5.04 software (GraphPad Software, Inc.).

[6] = target: Dopamine D1 (Homo sapiens, UniProt P21728); test: Receptor activity Ki, dopamine D1; format: binding
[7] = target: Dopamine D2 (Homo sapiens, UniProt P14416); test: Receptor activity Ki, dopamine D2; format: binding
[8] = target: Serotonin Transporter (Homo sapiens, UniProt P31645); test: Receptor activity Ki, serotonin transporter; format: binding
[9] = target: T1, Serotonin 5-HT2A; test: biochemical

Chain of Dopamine D2 (P14416 whole entry): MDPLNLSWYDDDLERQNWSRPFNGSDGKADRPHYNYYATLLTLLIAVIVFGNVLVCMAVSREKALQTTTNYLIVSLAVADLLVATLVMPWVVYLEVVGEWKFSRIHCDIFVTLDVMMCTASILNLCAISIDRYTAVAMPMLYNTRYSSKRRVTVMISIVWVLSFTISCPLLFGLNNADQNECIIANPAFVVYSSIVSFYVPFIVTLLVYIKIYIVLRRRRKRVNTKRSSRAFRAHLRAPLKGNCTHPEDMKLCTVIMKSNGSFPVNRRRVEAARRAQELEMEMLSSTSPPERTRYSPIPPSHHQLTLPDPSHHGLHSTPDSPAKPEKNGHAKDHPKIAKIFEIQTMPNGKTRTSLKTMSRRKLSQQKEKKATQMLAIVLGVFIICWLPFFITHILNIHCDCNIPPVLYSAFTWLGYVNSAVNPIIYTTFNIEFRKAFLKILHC
T1 sequence (P28223 whole entry): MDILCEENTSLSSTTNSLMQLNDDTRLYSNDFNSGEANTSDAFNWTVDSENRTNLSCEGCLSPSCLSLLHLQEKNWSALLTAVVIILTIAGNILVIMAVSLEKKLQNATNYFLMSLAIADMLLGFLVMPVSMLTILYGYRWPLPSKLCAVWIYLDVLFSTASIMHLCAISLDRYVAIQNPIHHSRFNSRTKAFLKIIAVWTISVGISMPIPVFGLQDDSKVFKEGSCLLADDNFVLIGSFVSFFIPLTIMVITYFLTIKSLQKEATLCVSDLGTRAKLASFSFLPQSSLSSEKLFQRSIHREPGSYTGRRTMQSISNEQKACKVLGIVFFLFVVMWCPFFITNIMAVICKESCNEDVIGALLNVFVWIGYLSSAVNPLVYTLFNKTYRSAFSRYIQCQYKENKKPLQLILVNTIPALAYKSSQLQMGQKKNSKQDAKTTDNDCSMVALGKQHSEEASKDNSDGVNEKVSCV
Chain of Serotonin Transporter (P31645 whole entry): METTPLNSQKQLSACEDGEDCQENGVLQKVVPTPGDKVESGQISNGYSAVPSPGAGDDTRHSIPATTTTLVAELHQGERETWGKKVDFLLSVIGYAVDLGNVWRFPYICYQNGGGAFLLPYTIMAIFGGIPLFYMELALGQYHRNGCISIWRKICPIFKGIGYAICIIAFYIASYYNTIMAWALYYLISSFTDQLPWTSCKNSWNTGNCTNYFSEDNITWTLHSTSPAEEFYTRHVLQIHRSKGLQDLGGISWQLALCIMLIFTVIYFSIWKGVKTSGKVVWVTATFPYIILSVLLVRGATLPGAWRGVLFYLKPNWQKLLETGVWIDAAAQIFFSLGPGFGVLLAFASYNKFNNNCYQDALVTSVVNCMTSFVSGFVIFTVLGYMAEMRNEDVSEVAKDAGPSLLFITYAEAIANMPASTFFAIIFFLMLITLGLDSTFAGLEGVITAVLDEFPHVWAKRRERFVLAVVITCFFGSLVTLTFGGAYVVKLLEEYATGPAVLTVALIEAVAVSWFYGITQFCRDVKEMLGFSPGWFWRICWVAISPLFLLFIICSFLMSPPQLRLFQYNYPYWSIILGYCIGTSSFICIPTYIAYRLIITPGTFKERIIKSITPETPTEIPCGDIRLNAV
Chain of Dopamine D1 (P21728 whole entry): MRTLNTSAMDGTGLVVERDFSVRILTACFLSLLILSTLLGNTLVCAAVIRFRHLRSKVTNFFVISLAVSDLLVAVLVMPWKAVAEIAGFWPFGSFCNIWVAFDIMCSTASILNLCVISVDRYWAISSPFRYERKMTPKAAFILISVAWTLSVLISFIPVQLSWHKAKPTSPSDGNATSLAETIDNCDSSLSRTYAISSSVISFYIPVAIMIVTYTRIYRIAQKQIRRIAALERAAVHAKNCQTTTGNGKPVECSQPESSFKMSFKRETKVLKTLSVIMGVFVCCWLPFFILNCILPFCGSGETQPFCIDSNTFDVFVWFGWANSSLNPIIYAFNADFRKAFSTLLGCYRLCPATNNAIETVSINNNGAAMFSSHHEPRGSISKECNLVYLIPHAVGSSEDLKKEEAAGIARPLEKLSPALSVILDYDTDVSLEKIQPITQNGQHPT

SMILES	extent of conversion of the parent compound to the amide metabolite compared to Formula Q [2]	extent of amide formation compared to compound Q after normalizing for internal standard [2]	AUC ([5]; iv, 1 mg/kg)	AUC ([5]; po, 10 mg/kg)	receptor binding profile compared to Formula Q [4]	Ki [7]	Ki [8]	other results
[2H]C1([2H])CN2c3c(cccc3N1C)[C@@H]1CN(CCCC(=O)c3ccc(F)cc3)CC[C@@H]12 (stereo in doubt) [Example 2, 2,2-D2-1-(4-fluorophenyl)-4-((6bR,10aS)-3-methyl-2,3,6b,7,10,10a-hexahydro-1H-pyrido[3′,4′:4,5]pyrrolo[1,2,3-de]quinoxalin-8(9H)-yl)butan-1-one]	considerably lower	significantly lower	257 ng·h/mL	58.5 ng·h/mL	substantially the same receptor binding profile			inhibition at 0.1 µM [1]: 98%; higher parent AUC compared to dosing of Formula Q ([3]; SL dosing): about 72%; higher parent AUC for SL compared to SC ([3]; SL vs SC): 61%
[2H]C([2H])([2H])N1CCN2c3c(cccc31)[C@@H]1CN(CCCC(=O)c3ccc(F)cc3)CC[C@@H]12 [Example 1, 1-(4-Fluorophenyl)-4-((6bR,10aS)-3-methyl-d3-2,3,6b,7,10,10a-hexahydro-1H-pyrido[3′,4′:4,5]pyrrolo[1,2,3-de]quinoxalin-8(9H)-yl)butan-1-one p-toluenesulfonate]	considerably lower	significantly lower			substantially the same receptor binding profile			
O=C(CCCN1CC[C@H]2[C@@H](C1)c1cccc3c1N2CCN3)c1ccc(F)cc1 [Example Q-1A]						30 nM	31 to 78 nM	Ki [6]: 110 nM; Ki [9]: 2 nM
O=C1CN2c3c(cccc3[C@@H]3CN(CCCC(=O)c4ccc(F)cc4)CC[C@@H]32)N1 [Example Q-1]						50 to 250 nM	> 600 nM	

The next lines start with results.

extent of conversion of the parent compound to the amide metabolite compared to Formula Q [2]	extent of amide formation compared to compound Q after normalizing for internal standard [2]	AUC ([5]; iv, 1 mg/kg)	AUC ([5]; po, 10 mg/kg)	SMILES	receptor binding profile compared to Formula Q [4]	Ki [7]	Ki [8]	other results
considerably lower	significantly lower			[2H]C([2H])([2H])N1c2cccc3c2N(CC1([2H])[2H])[C@H]1CCN(CCCC(=O)c2ccc(F)cc2)C[C@@H]31 [Example 3, 2,2-D2-1-(4-fluorophenyl)-4-((6bR,10aS)-3-methyl-d3-2,3,6b,7,10,10a-hexahydro-1H-pyrido[3′,4′:4,5]pyrrolo[1,2,3-de]quinoxalin-8(9H)-yl)butan-1-one p-toluenesulfonate]	substantially the same receptor binding profile			
		231 ng·h/mL	56 ng·h/mL	CN1CCN2c3c(cccc31)[C@@H]1CN(CCCC(=O)c3ccc(F)cc3)CC[C@@H]12 [Formula Q, 4-((6bR,10aS)-3-methyl-2,3,6b,9,10,10a-hexahydro-1H-pyrido[3′,4′: 4,5]pyrrolo[1,2,3-de]quinoxalin-8(7H)-yl)-1-(4-fluorophenyl)-1-butanone, reference compound]				less net AUC of parent compound, SL compared to SC administration ([3]; SL vs SC): 10%
